The values that follow come from PMC6464118 (European journal of medicinal chemistry, 2019).

The first data set concerns bevirimat-resistant HIV viruses NL4-3-V370A. The data set is described as follows: Activity against bevirimat-resistant HIV virus NL4-3-V370A. The data set is classed as cell-based.
Conditions: not given
For the compound `CC(=O)O[C@H]1[C@@H](OC(C)=O)[C@@]2(C)[C@@H]3CC[C@H]4C(C)(C)[C@@H](OC(=O)CC(C)(C)C(=O)O)CC[C@@]45C[C@@]35CC[C@@]23CO[C@@]2(C(C)(C)O)CC[C@](C)(O2)[C@@H]13` [Compound 13g, (20S, 24S)-15β,16β-Diacetoxy-18,24;20,24-diepoxy-9,19-cyclolanostane-3β, 25-diol 3-O-3′,3′-dimethylsuccinate], the “activity against bevirimat-resistant HIV viruses NL4-3-V370A” value is “no significant effects”.

The next data set concerns HIV-1 NL4-3 Nanoluc-sec virus.
Test: not given
The conditions noted are these: CC50 (MT4) / EC50 (NL4-3). It counts as cell-based.
Turning to `CC(=O)O[C@H]1[C@@H](OC(C)=O)[C@@]2(C)[C@@H]3CC[C@H]4C(C)(C)[C@@H](O[C@@H]5OC[C@@H](O)[C@H](O)[C@H]5O)CC[C@@]45C[C@@]35CC[C@@]23CO[C@@]2(C(C)(C)O)CC[C@](C)(O2)[C@@H]13` [Compound 1, beesioside I], the “TI: CC50/EC50” value is > 17.2.

Regarding `CC(=O)O[C@H]1[C@@H](OC(C)=O)[C@@]2(C)[C@@H]3CC[C@H]4C(C)(C)[C@@H](OC(=O)CC(C)C(=O)O)CC[C@@]45C[C@@]35CC[C@@]23CO[C@@]2(C(C)(C)O)CC[C@](C)(O2)[C@@H]13` (stereo partly drawn) [Compound 13f, (RS-3′-20S, 24S)-15β,16β-Diacetoxy-18,24;20,24-diepoxy-9,19-cyclolanostane-3β, 25-diol 3-O-3′-methylsuccinate], the “TI: CC50/EC50” value is reported as > 18.0.

`CC(=O)O[C@H]1[C@@H](O)[C@@]2(C)[C@@H]3CC[C@H]4C(C)(C)[C@@H](O[C@@H]5OC[C@@H](O)[C@H](O)[C@H]5O)CC[C@@]45C[C@@]35CC[C@@]23CO[C@@]2(C(C)(C)O)CC[C@](C)(O2)[C@@H]13` [Compound 2, beesioside K]: the “TI: CC50/EC50” value is on record as > 8.6.

Turning to `CC(=O)O[C@H]1[C@@H](OC(C)=O)[C@@]2(C)[C@@H]3CC[C@H]4C(C)(C)[C@@H](OC(=O)CCC(C)(C)C(=O)O)CC[C@@]45C[C@@]35CC[C@@]23CO[C@@]2(C(C)(C)O)CC[C@](C)(O2)[C@@H]13` [Compound 13j, (20S, 24S)-15β,16β-Diacetoxy-18,24;20,24-diepoxy-9,19-cyclolanostane-3β, 25-diol 3-O-4',4'-dimethylglutarate], the “TI: CC50/EC50” value is recorded as > 104.

Consider `CC1(C)[C@@H](O[C@@H]2OC[C@@H](O)[C@H](O)[C@H]2O)CC[C@]23C[C@]24CC[C@]25CO[C@@]6(C(C)(C)O)CC[C@](C)(O6)[C@H]2[C@@H](O)[C@@H](O)[C@@]5(C)[C@@H]4CC[C@@H]13` [Compound 1a, (20S,24S)-18,24;20,24-Diepoxy-9,19-cyclolanostane-3β, 15β, 16β,25-tetraol 3-O-β-D-xylopyrano-side], for which the “TI: CC50/EC50” value was > 5.2.

Turning to `CC(=O)O[C@H]1[C@@H](OC(C)=O)[C@@]2(C)[C@@H]3CC[C@H]4C(C)(C)[C@@H](OC(=O)CC5(CC(=O)O)CCCC5)CC[C@@]45C[C@@]35CC[C@@]23CO[C@@]2(C(C)(C)O)CC[C@](C)(O2)[C@@H]13` [Compound 13l, (20S,24S)-15β,16β-Diacetoxy-18,24;20,24-diepoxy-9,19-cyclolanostane-3β,25-diol 3-O-3′,3′-tetramethyleneglutarate], the “TI: CC50/EC50” value is listed as > 12.6.

Take `CC(=O)O[C@H]1[C@@H](OC(C)=O)[C@@]2(C)[C@@H]3CC[C@H]4C(C)(C)[C@@H](OC(C)=O)CC[C@@]45C[C@@]35CC[C@@]23CO[C@@]2(C(C)(C)O)CC[C@](C)(O2)[C@@H]13` [Compound 13a, (20S, 24S)-15β, 16β-Diacetoxy-18,24;20,24-diepoxy-9,19-cyclolanostane-25-hydroxy-3β-yl acetate]: the “TI: CC50/EC50” value is given as > 16.4.

For the compound `CC(=O)O[C@H]1[C@@H](OC(C)=O)[C@@]2(C)[C@@H]3CC[C@H]4C(C)(C)[C@@H](OC(=O)COCC(=O)O)CC[C@@]45C[C@@]35CC[C@@]23CO[C@@]2(C(C)(C)O)CC[C@](C)(O2)[C@@H]13` [Compound 13m, (20S,24S)-15β, 16β-Diacetoxy-18,24;20,24-diepoxy-9,19-cyclolanostane-3β,25-diol 3-O-diglycolate], the “TI: CC50/EC50” value is recorded as > 41.7.

Take `CC(=O)O[C@H]1[C@@H](OC(C)=O)[C@@]2(C)[C@@H]3CC[C@H]4C(C)(C)[C@@H](OC(=O)CCC(=O)O)CC[C@@]45C[C@@]35CC[C@@]23CO[C@@]2(C(C)(C)O)CC[C@](C)(O2)[C@@H]13` [Compound 13e, (20S,24S)-15β,16β-Diacetoxy-18,24;20,24-diepoxy-9,19-cyclolanostane-3β,25-diol 3-O-succinate]: the “TI: CC50/EC50” value is reported as > 5.2.

Regarding `CC(=O)O[C@H]1[C@H](O)[C@H]([C@]2(C)CC[C@@H](C(C)(C)O)O2)[C@@]2(C)CC[C@@]34C[C@@]35CC[C@H](O[C@@H]3OC[C@@H](O)[C@H](O)[C@H]3O)C(C)(C)[C@@H]5CC[C@H]4[C@]12C` [Compound 4, beesioside M], the “TI: CC50/EC50” value was > 8.2.

The data set is the same for the next values; noted with them: HIV-1 NL4-3 replication in MT4 cells.
Regarding `CC(=O)O[C@H]1[C@H](O)[C@@]2(C)[C@@H]3CC[C@H]4C(C)(C)[C@@H](O[C@@H]5OC[C@@H](O)[C@H](O)[C@H]5O)CC[C@@]45C[C@@]35CC[C@@]23CO[C@@](C)(CCC(=O)C(C)(C)O)[C@@H]13` [Compound 11, soulieoside O], the “anti-HIV activity in words” value was “inactive”.

As to `CC(=O)O[C@H]1[C@@H](OC(C)=O)[C@@]2(C)[C@@H]3CC[C@H]4C(C)(C)[C@@H](O[C@@H]5OC[C@@H](O)[C@H](O)[C@H]5O)CC[C@@]45C[C@@]35CC[C@@]23CO[C@@](C)(CCC(=O)C(C)(C)O)[C@@H]13` [Compound 12, soulieoside P], the “anti-HIV activity in words” value was “inactive”.

Turning to `CC(C)(O)[C@@H]1CC[C@@](C)([C@H]2[C@@H](O)[C@H](O)[C@@]3(C)[C@@H]4[C@@H](O)C[C@H]5C(C)(C)[C@@H](O[C@@H]6OC[C@@H](O)[C@H](O)[C@H]6O)CC[C@@]56C[C@@]46CC[C@]23C)O1` [Compound 5, soulieoside N], the “anti-HIV activity in words” value is “inactive”.

Consider `CC1(C)[C@@H](O[C@@H]2OC[C@@H](O)[C@H](O)[C@H]2O)CC[C@]23C[C@]24CC[C@]25CO[C@@]6(C(C)(C)O)CC[C@](C)(O6)[C@H]2[C@@H](O)[C@@H](O)[C@@]5(C)[C@@H]4CC[C@@H]13` [Compound 1a, (20S,24S)-18,24;20,24-Diepoxy-9,19-cyclolanostane-3β, 15β, 16β,25-tetraol 3-O-β-D-xylopyrano-side], for which the “anti-HIV activity in words” value was “less potent”.

Turning to `CC(=O)O[C@H]1[C@@H]2O[C@@]3(C(C)(C)O)CC[C@](C)(O3)[C@@H]2[C@@]2(CO)CC[C@@]34C[C@@]35CC[C@H](O[C@@H]3OC[C@@H](O)[C@H](O)[C@H]3O)C(C)(C)[C@@H]5CC[C@H]4[C@]12C` [Compound 9, (20S,24S)-15α-acetoxy-16β,24;20,24-diepoxy-3β-(β-D-xylopyranosyloxy)-9,19-cyclolanostane-18,25-diol], the “anti-HIV activity in words” value was “inactive”.

`CC1(C)[C@@H](O)CC[C@]23C[C@]24CC[C@]25CO[C@@]6(C(C)(C)O)CC[C@](C)(O6)[C@H]2[C@@H](O)[C@@H](O)[C@@]5(C)[C@@H]4CC[C@@H]13` [Compound 13d, (20S, 24S)-18,24;20,24-Diepoxy-9,19-cyclolanostane-3β, 15β, 16β, 25-tetraol]: the “anti-HIV activity in words” value was “inactive”.

For the compound `CC(=O)O[C@H]1[C@@H](OC(C)=O)[C@@]2(C)[C@@H]3CC[C@H]4C(C)(C)[C@@H](O)CC[C@@]45C[C@@]35CC[C@@]23CO[C@@]2(C(C)(C)O)CC[C@](C)(O2)[C@@H]13` [Compound 13, (20S,24S)-15β, 16β-Diacetoxy-18,24;20,24-diepoxy-9,19-cyclolanostane-3β,25-diol], the “anti-HIV activity in words” value was “inactive”.

Staying with this data set, now noted: relative to compound 1.
For `CC(=O)O[C@H]1[C@@H](OC(C)=O)[C@@]2(C)[C@@H]3CC[C@H]4C(C)(C)[C@@H](OC(=O)CC(C)(C)C(=O)O)CC[C@@]45C[C@@]35CC[C@@]23CO[C@@]2(C(C)(C)O)CC[C@](C)(O2)[C@@H]13` [Compound 13g, (20S, 24S)-15β,16β-Diacetoxy-18,24;20,24-diepoxy-9,19-cyclolanostane-3β, 25-diol 3-O-3′,3′-dimethylsuccinate], the “fold more potent than 1 (anti-HIV activity)” value is listed as “approximately 100 fold”.
